Assay results taken from patent US20160193216A1 (Nimbus Iris, Inc., priority 2012, published 2016).

Target: T1, IRAK4 (Homo sapiens, UniProt Q9NWZ3)
T1 sequence (Q9NWZ3 1-460): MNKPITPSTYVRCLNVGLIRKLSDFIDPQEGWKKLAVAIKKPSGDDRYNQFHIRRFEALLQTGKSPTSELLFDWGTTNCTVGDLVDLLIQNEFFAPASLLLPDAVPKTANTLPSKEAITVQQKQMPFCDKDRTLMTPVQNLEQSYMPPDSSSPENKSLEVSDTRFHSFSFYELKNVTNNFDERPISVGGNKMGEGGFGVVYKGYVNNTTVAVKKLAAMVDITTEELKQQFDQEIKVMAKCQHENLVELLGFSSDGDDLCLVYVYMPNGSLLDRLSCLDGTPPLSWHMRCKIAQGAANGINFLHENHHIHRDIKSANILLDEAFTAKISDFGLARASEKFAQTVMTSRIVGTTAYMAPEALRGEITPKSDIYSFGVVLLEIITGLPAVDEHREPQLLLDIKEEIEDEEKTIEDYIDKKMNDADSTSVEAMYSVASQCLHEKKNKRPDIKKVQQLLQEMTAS
Assay: IRAK-4 activity inhibition assay (Caliper)
Type: biochemical
Settings: 37 μM ATP, 3.5 nM IRAK4

Question: With `CNC(=O)N1Cc2sc3ncnc(O[C@H]4CC[C@H](N5CCOCC5)CC4)c3c2C1` [Compound I-200, N-methyl-12-[[4-(morpholin-4-yl)cyclohexyl]oxy]-7-thia-4,9, 11-triazatricyclo[6.4.0.0[2,6]]dodeca-1(8),9, 11-triene-4-carboxamide] as the compound, how does the IC50 read?
Answer: Its IC50 is less than 5 µM.

Question: Which IC50 does the source give for `CN(C)[C@H]1CC[C@H](Oc2ncnc3sc4c(c23)CN(C(N)=O)CC4)CC1` [Compound I-201, 3-[[4-(dimethylamino)cyclohexyl]oxy]-8-thia-4,6, 12-triazatricyclo[7.4.0.0[2,7]]trideca-1(9),2,4,6-tetraene-12-carboxamide] here?
Answer: Its IC50 is less than 5 µM.

Question: `CN[C@H]1CC[C@H](Oc2ncnc3sc4c(c23)CN(C(C)=O)CC4)CC1` [Compound I-202, 1-(3-[[4-(methylamino)cyclohexyl]oxy]-8-thia-4,6,12-triazatricyclo[7.4.0.0[2,7]]trideca-1 (9),2,4,6-tetraen-12-yl)ethan-1-one] was tested. Which IC50 did it give?
Answer: Its IC50 is 5 to 20 µM.

Question: Which IC50 does the source give for `NC(=O)C1CCc2sc3ncnc(N[C@H]4CC[C@H](N5CCOCC5)CC4)c3c2C1` (stereo partly shown) [Compound I-203, 3-[[4-(morpholin-4-yl)cyclohexyl]amino]-8-thia-4,6-diazatricyclo[7.4.0.0[2,7]]trideca-1(9),2,4,6-tetraene-12-carboxamide] here?
Answer: Its IC50 is less than 5 µM.

Question: How did the IC50 turn out when `NC(=O)[C@@H]1CCc2sc3ncnc(N[C@H]4CC[C@H](N5CCOCC5)CC4)c3c2C1` [Compound I-208, (12R)-3-[[4-(morpholin-4-yl)cyclohexyl]amino]-8-thia-4,6-diazatricyclo[7.4.0.0[2,7]]trideca-1(9),2(7),3,5-tetraene-12-carboxamide] was run?
Answer: The IC50 was less than 5 µM.

Question: With `CN(C)[C@H]1CC[C@H](Oc2ncnc3sc4c(c23)CN(S(=O)(=O)CCO)CC4)CC1` [Compound I-209, 2-(3-[[4-(dimethylamino)cyclohexyl]oxy]-8-thia-4,6, 12-triazatricyclo[7.4.0.0[2,7]]trideca-1(9),2,4,6-tetraene-12-sulfonyl)ethan-1-ol] as the compound, how does the IC50 read?
Answer: The IC50 was less than 5 µM.

Question: For `OC[C@H]1CCc2sc3ncnc(N[C@H]4CC[C@H](N5CCOCC5)CC4)c3c2C1` [Compound I-210, [(12S)-3-[[4-(morpholin-4-yl)cyclohexyl]amino]-8-thia-4,6-diazatricyclo[7.4.0.0[2,7]]trideca-2,4,6-trien-12-yl]methanol], which IC50 is on record?
Answer: Its IC50 is less than 5 µM.

Question: Which IC50 does the source give for `OC[C@@H]1CCc2sc3ncnc(N[C@H]4CC[C@H](N5CCOCC5)CC4)c3c2C1` [Compound I-211, [(12R)-3-[[4-(morpholin-4-yl)cyclohexyl]amino]-8-thia-4,6-diazatricyclo[7.4.0.0[2,7]]trideca-1(9),2,4,6-tetraen-12-yl]methanol] here?
Answer: Its IC50 is less than 5 µM.

Question: With `NC(=O)C(=O)C[C@H]1CCc2sc3ncnc(OC4CCC(N5CCOCC5)CC4)c3c21` (stereo partly drawn) [Compound I-213, 3-[(3R)-12-[[4-(morpholin-4-yl)cyclohexyl]oxy]-7-thia-9, 11-diazatricyclo[6.4.0.0[2,6]]dodeca-1(8),2(6),9, 11-tetraen-3-yl]-2-oxopropanamide] as the compound, how does the IC50 read?
Answer: The IC50 was less than 5 µM.

Question: How did the IC50 turn out when `OC[C@H]1CCc2sc3ncnc(O[C@H]4CC[C@H](N5CCOCC5)CC4)c3c2C1` [Compound I-216, [(12S)-3-[[4-(morpholin-4-yl)cyclohexyl]oxy]-8-thia-4,6-diazatricyclo[7.4.0.0[2,7]]trideca-1(9),2(7),3,5-tetraen-12-yl]methanol] was run?
Answer: The IC50 was less than 5 µM.

Question: With `NC(=O)[C@H](O)C[C@H]1CCc2sc3ncnc(O[C@H]4CC[C@H](N5CCCCC5)CC4)c3c21` [Compound I-218, (R)-2-hydroxy-3-((R)-4-(((1r,4R)-4-(piperidin-1-yl)cyclohexyl)oxy)-6,7-dihydro-5H-cyclopenta[4,5]thieno[2,3-d]pyrimidin-5-yl)propanamide] as the compound, how does the IC50 read?
Answer: Its IC50 is less than 5 µM.

Question: For `CN(C)[C@H]1CC[C@H](Oc2ncnc3sc4c(c23)CC(CCO)OC4)CC1` (stereo partly shown) [Compound I-219, 2-(3-[[4-(dimethylamino)cyclohexyl]oxy]-1-oxa-8-thia-4,6-diazatricyclo[7.4.0.0[2,7]]trideca-1(9),2,4,6-tetraen-12-yl)ethan-1-ol], which IC50 is on record?
Answer: Its IC50 is less than 5 µM.

Question: With `CN(C)[C@H]1CC[C@H](Oc2ncnc3sc4c(c23)CC(CC(N)=O)OC4)CC1` (stereo partly shown) [Compound I-221, 2-(3-[[4-(dimethylamino)cyclohexyl]oxy]-11-oxa-8-thia-4,6-diazatricyclo[7.4.0.0[2,7]]trideca-1(9),2(7),3,5-tetraen-12-yl)acetamide] as the compound, how does the IC50 read?
Answer: The IC50 was less than 5 µM.

Question: Which IC50 does the source give for `NC(=O)[C@@H](O)C[C@H]1CCc2sc3ncnc(O[C@H]4CC[C@H](N5CCCC5)CC4)c3c21` [Compound I-226, (S)-2-hydroxy-3-((R)-4-(((1r,4R)-4-(pyrrolidin-1-yl)cyclohexyl)oxy)-6,7-dihydro-5H-cyclopenta[4,5]thieno[2,3-d]pyrimidin-5-yl)propanamide] here?
Answer: Its IC50 is less than 5 µM.

Question: How did the IC50 turn out when `C[C@@H]1COCCN1[C@H]1CC[C@H](Oc2ncnc3sc4c(c23)[C@@H](CC(N)=O)CC4)CC1` [Compound I-227, 2-[(3R)-12-([4-[(3R)-3-methylmorpholin-4-yl]cyclohexyl]oxy)-7-thia-9,11-diazatricyclo[6.4.0.0[2,6]]dodeca-1(8),2(6),9, 11-tetraen-3-yl]acetamide] was run?
Answer: Its IC50 is less than 5 µM.

Question: Which IC50 does the source give for `O=C(O)[C@H]1CCc2sc3ncnc(O[C@H]4CC[C@H](N5CCOCC5)CC4)c3c2C1` [Compound I-234, (12S)-3-[[(1r,4r)-4-(morpholin-4-yl)cyclohexyl]oxy]-8-thia-4,6-diazatricyclo[7.4.0.0[2,7]]trideca-1(9),2(7),3,5-tetraene-12-carboxylic acid] here?
Answer: Its IC50 is less than 5 µM.

Question: How did the IC50 turn out when `NC(=O)[C@H]1CCc2sc3ncnc(O[C@H]4CC[C@H](N5CCC(F)(F)CC5)CC4)c3c2C1` [Compound I-236, (12S)-3-[[4-(4,4-difluoropiperidin-1-yl)cyclohexyl]oxy]-8-thia-4,6-diazatricyclo[7.4.0.0[2,7]]trideca-1(9),2(7),3,5-tetraene-12-carboxamide] was run?
Answer: Its IC50 is less than 5 µM.

Question: Which IC50 does the source give for `CC1(C(N)=O)CCc2sc3ncnc(O[C@H]4CC[C@H](N5CCOCC5)CC4)c3c2C1` (stereo partly shown) [Compound I-237, 12-methyl-3-[[(1r,4r)-4-(morpholin-4-yl)cyclohexyl]oxy]-8-thia-4,6-diazatricyclo[7.4.0.0[2,7]]trideca-1(9),2,4,6-tetraene-12-carboxamide] here?
Answer: The IC50 was less than 5 µM.

Question: With `CN(C)[C@H]1CC[C@H](Oc2ncnc3sc4c(c23)CN(S(N)(=O)=O)CC4)CC1` [Compound I-238, 3-[[4-(dimethylamino)cyclohexyl]oxy]-8-thia-4,6, 12-triazatricyclo[7.4.0.0[2,7]]trideca-1(9),2(7),3,5-tetraene-12-sulfonamide] as the compound, how does the IC50 read?
Answer: The IC50 was less than 5 µM.
